Reference: patent publication US6432987B1, “Substituted N-benzylindol-3-ylglyoxylic acid derivatives having antitumor action” (Zentaris AG, priority 1999, dated 2002)

System: tubulin
Assay: tubulin polymerization assay
Format: biochemical
Settings: result in words only
Text: It was possible to show the activity of the present compounds in a tubulin polymerization assay.

With Nc1ccc(Cn2cc(C(=O)C(=O)Nc3ccncc3)c3ccccc32)cc1 [Example D-68838, N-(Pyridin-4-yl)-[1-(4-aminobenzyl)indol-3-yl]glyoxyl-amide] the “inhibition of the polymerization of tubulin” value was “inhibits the polymerization of tubulin”.
